Assay results as given in the NIST ThermoML archive (doi:10.1016/j.jct.2006.01.007).
± gives the expanded uncertainty stated by the source.

Experiment: xn = mol fraction of the nth substance listed
Conditions: 101 kPa, Liquid; for speed of sound: Sing-around technique in a fixed-path interferometer

CC(C)(C)O [2-methylpropan-2-ol] + O
x2 = 0.9615
Conditions | mass density [kg/m3] | speed of sound [m/s]
288.15 K | 980.2 ± 0.5 | 1613.7 ± 0.79
293.15 K | 978.4 ± 0.5 | 1612.4 ± 0.79
298.15 K | 976.6 ± 0.5 | 1610 ± 0.79
303.15 K | 973.6 ± 0.5 | 1606.5 ± 0.79
308.15 K | 971.5 ± 0.5 | 1602.5 ± 0.79
313.15 K | 968.8 ± 0.5 | 1597 ± 0.79

C[S+](C)[O-] [dimethyl sulfoxide] + O
x1 = 0.0385
Conditions | mass density [kg/m3] | speed of sound [m/s]
288.15 K | 1019.8 ± 0.5 | 1555.2 ± 0.78
293.15 K | 1018.1 ± 0.5 | 1562.5 ± 0.78
298.15 K | 1016.2 ± 0.5 | 1568.5 ± 0.78
303.15 K | 1014.4 ± 0.5 | 1573.4 ± 0.78
308.15 K | 1012.3 ± 0.5 | 1577 ± 0.78
313.15 K | 1010.2 ± 0.5 | 1579.4 ± 0.78
